Results: BigSolDB 2.1

With CNC[C@H](O)c1cccc(O)c1.Cl the solubility (mole fraction) (in 2-butoxyethanol, 278.15 K) was 0.00496, the solubility (mole fraction) (in 2-butoxyethanol, 283.15 K) was 0.00611 and the solubility (mole fraction) (in 2-butoxyethanol, 288.15 K) was 0.00811. The solubility (mole fraction) (in 2-butoxyethanol, 293.15 K) was 0.0102, the solubility (mole fraction) (in 2-butoxyethanol, 298.15 K) was 0.0126 and the solubility (mole fraction) (in 2-butoxyethanol, 303.15 K) was 0.016. For the same molecule, the solubility (mole fraction) (in 2-butoxyethanol, 308.15 K) was 0.0195, the solubility (mole fraction) (in 2-butoxyethanol, 313.15 K) was 0.0248 and the solubility (mole fraction) (in 2-butoxyethanol, 318.15 K) was 0.0306. For the same molecule, the solubility (mole fraction) (in 2-butoxyethanol, 323.15 K) was 0.0372, the solubility (mole fraction) (in 2-ethoxyethanol, 278.15 K) was 0.0254 and the solubility (mole fraction) (in 2-ethoxyethanol, 283.15 K) was 0.0305. The solubility (mole fraction) (in 2-ethoxyethanol, 288.15 K) was 0.0386, the solubility (mole fraction) (in 2-ethoxyethanol, 293.15 K) was 0.0465 and the solubility (mole fraction) (in 2-ethoxyethanol, 298.15 K) was 0.0553. For the same molecule, the solubility (mole fraction) (in 2-ethoxyethanol, 303.15 K) was 0.0654, the solubility (mole fraction) (in 2-ethoxyethanol, 308.15 K) was 0.0761 and the solubility (mole fraction) (in 2-ethoxyethanol, 313.15 K) was 0.0903. The solubility (mole fraction) (in 2-ethoxyethanol, 318.15 K) was 0.106, the solubility (mole fraction) (in 2-ethoxyethanol, 323.15 K) was 0.122 and the solubility (mole fraction) (in 2-methoxyethanol, 278.15 K) was 0.114. The solubility (mole fraction) (in 2-methoxyethanol, 283.15 K) was 0.122, the solubility (mole fraction) (in 2-methoxyethanol, 288.15 K) was 0.131 and the solubility (mole fraction) (in 2-methoxyethanol, 293.15 K) was 0.14. The solubility (mole fraction) (in 2-methoxyethanol, 298.15 K) was 0.147, the solubility (mole fraction) (in 2-methoxyethanol, 303.15 K) was 0.161 and the solubility (mole fraction) (in 2-methoxyethanol, 308.15 K) was 0.171. The solubility (mole fraction) (in 2-methoxyethanol, 313.15 K) was 0.183, the solubility (mole fraction) (in 2-methoxyethanol, 318.15 K) was 0.195 and the solubility (mole fraction) (in 2-methoxyethanol, 323.15 K) was 0.21. For the same molecule, the solubility (mole fraction) (in 2-propoxyethanol, 278.15 K) was 0.00782, the solubility (mole fraction) (in 2-propoxyethanol, 283.15 K) was 0.01 and the solubility (mole fraction) (in 2-propoxyethanol, 288.15 K) was 0.0132. The solubility (mole fraction) (in 2-propoxyethanol, 293.15 K) was 0.0162, the solubility (mole fraction) (in 2-propoxyethanol, 298.15 K) was 0.0195 and the solubility (mole fraction) (in 2-propoxyethanol, 303.15 K) was 0.0244. The solubility (mole fraction) (in 2-propoxyethanol, 308.15 K) was 0.0304, the solubility (mole fraction) (in 2-propoxyethanol, 313.15 K) was 0.0376 and the solubility (mole fraction) (in 2-propoxyethanol, 318.15 K) was 0.0462. For the same molecule, the solubility (mole fraction) (in 2-propoxyethanol, 323.15 K) was 0.0566, the solubility (mole fraction) (in DMF, 278.15 K) was 0.185 and the solubility (mole fraction) (in DMF, 283.15 K) was 0.198. For the same molecule, the solubility (mole fraction) (in DMF, 288.15 K) was 0.21, the solubility (mole fraction) (in DMF, 293.15 K) was 0.222 and the solubility (mole fraction) (in DMF, 298.15 K) was 0.236. It also gave a solubility (mole fraction) (in DMF, 303.15 K) of 0.251, a solubility (mole fraction) (in DMF, 308.15 K) of 0.265 and a solubility (mole fraction) (in DMF, 313.15 K) of 0.284. It also gave a solubility (mole fraction) (in DMF, 318.15 K) of 0.299, a solubility (mole fraction) (in DMF, 323.15 K) of 0.315 and a solubility (mole fraction) (in NMP, 278.15 K) of 0.154. The solubility (mole fraction) (in NMP, 283.15 K) was 0.161, the solubility (mole fraction) (in NMP, 288.15 K) was 0.169 and the solubility (mole fraction) (in NMP, 293.15 K) was 0.178. It also gave a solubility (mole fraction) (in NMP, 298.15 K) of 0.186, a solubility (mole fraction) (in NMP, 303.15 K) of 0.198 and a solubility (mole fraction) (in NMP, 308.15 K) of 0.208. For the same molecule, the solubility (mole fraction) (in NMP, 313.15 K) was 0.22, the solubility (mole fraction) (in NMP, 318.15 K) was 0.232 and the solubility (mole fraction) (in NMP, 323.15 K) was 0.246. For the same molecule, the solubility (mole fraction) (in ethanol, 278.15 K) was 0.0138, the solubility (mole fraction) (in ethanol, 283.15 K) was 0.0168 and the solubility (mole fraction) (in ethanol, 288.15 K) was 0.0195. The solubility (mole fraction) (in ethanol, 293.15 K) was 0.0233, the solubility (mole fraction) (in ethanol, 298.15 K) was 0.0287 and the solubility (mole fraction) (in ethanol, 303.15 K) was 0.034. The solubility (mole fraction) (in ethanol, 308.15 K) was 0.0404, the solubility (mole fraction) (in ethanol, 313.15 K) was 0.047 and the solubility (mole fraction) (in ethanol, 318.15 K) was 0.0554. It also gave a solubility (mole fraction) (in ethanol, 323.15 K) of 0.0654, a solubility (mole fraction) (in isopropanol, 278.15 K) of 0.00201 and a solubility (mole fraction) (in isopropanol, 283.15 K) of 0.00251. For the same molecule, the solubility (mole fraction) (in isopropanol, 288.15 K) was 0.00335, the solubility (mole fraction) (in isopropanol, 293.15 K) was 0.00409 and the solubility (mole fraction) (in isopropanol, 298.15 K) was 0.00492. For the same molecule, the solubility (mole fraction) (in isopropanol, 303.15 K) was 0.0062, the solubility (mole fraction) (in isopropanol, 308.15 K) was 0.00768 and the solubility (mole fraction) (in isopropanol, 313.15 K) was 0.00931. The solubility (mole fraction) (in isopropanol, 318.15 K) was 0.0113, the solubility (mole fraction) (in isopropanol, 323.15 K) was 0.0138 and the solubility (mole fraction) (in methanol, 278.15 K) was 0.0715. The solubility (mole fraction) (in methanol, 283.15 K) was 0.0811, the solubility (mole fraction) (in methanol, 288.15 K) was 0.09 and the solubility (mole fraction) (in methanol, 293.15 K) was 0.101. It also gave a solubility (mole fraction) (in methanol, 298.15 K) of 0.111, a solubility (mole fraction) (in methanol, 303.15 K) of 0.123 and a solubility (mole fraction) (in methanol, 308.15 K) of 0.136. The solubility (mole fraction) (in methanol, 313.15 K) was 0.15, the solubility (mole fraction) (in methanol, 318.15 K) was 0.165 and the solubility (mole fraction) (in methanol, 323.15 K) was 0.182. For the same molecule, the solubility (mole fraction) (in n-propanol, 278.15 K) was 0.00469, the solubility (mole fraction) (in n-propanol, 283.15 K) was 0.00586 and the solubility (mole fraction) (in n-propanol, 288.15 K) was 0.00728. The solubility (mole fraction) (in n-propanol, 293.15 K) was 0.00905, the solubility (mole fraction) (in n-propanol, 298.15 K) was 0.0107 and the solubility (mole fraction) (in n-propanol, 303.15 K) was 0.0133. The solubility (mole fraction) (in n-propanol, 308.15 K) was 0.0163, the solubility (mole fraction) (in n-propanol, 313.15 K) was 0.0196 and the solubility (mole fraction) (in n-propanol, 318.15 K) was 0.0236. For the same molecule, the solubility (mole fraction) (in n-propanol, 323.15 K) was 0.0282.
